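96-well plates; 48 h exposure; 5 concentrations. Endpoints by linear interpolation between flanking doses. Not reached: highest tested concentration assigned. GI50 = concentration required for 50% inhibition of growth.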 The source made the active and inactive calls. No stated cut-off is given here; in the data, active = GI50 up to about 1.1 µM and inactive = higher.

Test systems include MOLT-4; HCT-116; LOX IMVI; NCI-H23; TK-10; CCRF-CEM; UACC-62; M14; EKVX; OVCAR-8; SF-295; HT-29; A498; HOP-92; 786-0; KM12; HCC 2998; NCI-H522; MDA-MB-231; IGROV-1.
Holding throughout (experiment): NCI tumour cell line growth inhibition, 48 h

Take `COc1cc(C(=O)c2cocc2C(=O)c2ccc3c(c2)OCO3)cc(OC)c1OC`: the GI50 is 0.991 µM (active) in the assay on MOLT-4; 0.333 µM (active) with HCT-116; 0.483 µM (active) with LOX IMVI; 0.826 µM (active) in the assay on NCI-H23; 3.18 µM (inactive) in the assay with TK-10; 0.444 µM (active) in the assay on CCRF-CEM. Further, the GI50 with UACC-62 is 0.311 µM (active); in the assay on M14 it was 1 µM (active); with EKVX it was 6.64 µM (inactive); in the assay on OVCAR-8, 1.35 µM (inactive); with SF-295, 0.351 µM (active); in the assay with HT-29, 0.244 µM (active). Moreover, the GI50 is 4.05 µM (inactive) in the assay on A498; 2.69 µM (inactive) in the assay on HOP-92; 0.57 µM (active) in the assay with 786-0; 0.254 µM (active) with KM12; 3.72 µM (inactive) in the assay on HCC 2998; 0.268 µM (active) in the assay with NCI-H522. Moreover, the GI50 is 2.65 µM (inactive) in the assay with MDA-MB-231 and 1.5 µM (inactive) in the assay with IGROV-1.
For the compound `CCCCCCNCCCNc1c2ccccc2nc2cccc([N+](=O)[O-])c12`, the GI50 was 0.00658 µM (active) with MOLT-4; 0.0352 µM (active) in the assay with HCT-116; 0.0193 µM (active) in the assay on LOX IMVI; 0.0116 µM (active) in the assay with NCI-H23; 0.0621 µM (active) in the assay with TK-10; 0.0229 µM (active) in the assay with CCRF-CEM. For the same compound, the GI50 was 0.0279 µM (active) with UACC-62; 0.0119 µM (active) in the assay on M14; 0.0246 µM (active) in the assay with EKVX; 0.012 µM (active) with OVCAR-8; 0.0188 µM (active) in the assay on SF-295; 0.00528 µM (active) in the assay on HT-29. For the same compound, the GI50 in the assay with A498 was 0.164 µM (active); in the assay with HOP-92 it was 0.0211 µM (active); with 786-0 it was 0.00948 µM (active); with KM12, 0.0127 µM (active); with HCC 2998 it was 0.00665 µM (active); with NCI-H522 it was 0.0121 µM (active). Besides, the GI50 was 0.0229 µM (active) in the assay on MDA-MB-231 and 0.00873 µM (active) in the assay with IGROV-1.
Take `Cc1ccccc1C(=O)N1CCc2c([nH]c3ccccc23)C1`: the GI50 with MOLT-4 was 27.4 µM (inactive); with HCT-116, 17.7 µM (inactive); with LOX IMVI, 21.9 µM (inactive); with NCI-H23, 21.4 µM (inactive); in the assay on TK-10, 28.2 µM (inactive); in the assay with CCRF-CEM, 24.8 µM (inactive). For the same compound, the GI50 in the assay with UACC-62 was 16 µM (inactive); in the assay with M14 it was 19.4 µM (inactive); in the assay with EKVX it was 24.9 µM (inactive); with OVCAR-8, 27 µM (inactive); in the assay with SF-295, 29.1 µM (inactive); in the assay with HT-29, 18.8 µM (inactive). Besides, the GI50 in the assay on A498 is 21.5 µM (inactive); with HOP-92, 15.1 µM (inactive); in the assay with 786-0, 22.9 µM (inactive); with KM12, 25.9 µM (inactive); with HCC 2998 it was 18.5 µM (inactive); in the assay with NCI-H522 it was 19.1 µM (inactive). The figures for the GI50 with MDA-MB-231 and in the assay with IGROV-1 were 12.7 µM (inactive) and 25.7 µM (inactive), respectively.
Take `CC(=O)/C(=C/NC(=S)Nc1ccccc1)C(=O)Nc1ccccc1C`: the GI50 in the assay on MOLT-4, in the assay with HCT-116, in the assay on LOX IMVI, in the assay with NCI-H23, with TK-10 and in the assay with CCRF-CEM was > 100 µM (inactive) each time. Also, the GI50 in the assay on UACC-62 was > 100 µM (inactive); in the assay with M14, > 100 µM (inactive); with EKVX it was > 100 µM (inactive); in the assay with OVCAR-8, > 100 µM (inactive); in the assay on SF-295 it was > 100 µM (inactive); in the assay on HT-29, 77.8 µM (inactive). Further, the GI50 in the assay with A498 is > 100 µM (inactive); in the assay on HOP-92, 99.1 µM (inactive); in the assay on 786-0, > 100 µM (inactive); with KM12, > 100 µM (inactive); in the assay on HCC 2998, > 100 µM (inactive); with NCI-H522, > 100 µM (inactive). Also, the figures for the GI50 in the assay on MDA-MB-231 and in the assay on IGROV-1 were 29.4 µM (inactive) and > 100 µM (inactive), respectively.
